Experimental data as given in patent US20070009965A1, “Novel method for screening for GPCR agonists and/or antagonists from herbs” (Advanced Gene Technology, Corp., priority 2004, published 2007).

Target: MC5R (Homo sapiens, UniProt P33032)
Experiment: herbal chip hybridization with MC5R and Cy3-anti-MC5R, fluorescence imaging
Type: binding
Settings: at least 25 ng/ml NDP-MSH spotted on coated slide; at least 25 μg/ml MC5R; at least 5 μg/ml Cy3-anti-MC5R; laser scanner
Protocol: A coated plastic slide (1) having active epoxy groups on its surface was prepared in accordance with the method disclosed in the Paragraph entitled “Pretreatment of the Plastic Slide and Preparation of the Coated Plastic Slide” under the Example section of U.S. Pat. No. 6,645,719 B2.
In a dark room, under room temperature, at least 25 μg/ml of MC3R, MC4R and MC5R were individually added to the slides (2), and the resultant slides (3) were allowed to stand for 1 hour for completing hybridization. The slides (3) were washed with 1× TBST buffer (50 mM Tris, pH 7.3, 0.15 M NaCl and 0.02% Tween 20) and Milli-Q water, and then dried in an incubator at 37° C.
Also in the dark room, under room temperature, at least 5 μg/ml of Cy3-anti-MC3R, Cy3-anti-MC4R and Cy3-anti-MC5R were respectively added to the slides (3), each containing said bound MC3R, MC4R or MC5R. The resultant slides (4) were allowed to stand for 1 hour for completing the specific MCXR-anti-MCXR binding, and were then washed with 1× TBST buffer (50 mM Tris, pH 7.3, 0.15 M NaCl and 0.02% Tween 20) and Milli-Q water, and dried in an incubator at 37° C.

Sequence of MC5R (P33032 whole entry, species assumed): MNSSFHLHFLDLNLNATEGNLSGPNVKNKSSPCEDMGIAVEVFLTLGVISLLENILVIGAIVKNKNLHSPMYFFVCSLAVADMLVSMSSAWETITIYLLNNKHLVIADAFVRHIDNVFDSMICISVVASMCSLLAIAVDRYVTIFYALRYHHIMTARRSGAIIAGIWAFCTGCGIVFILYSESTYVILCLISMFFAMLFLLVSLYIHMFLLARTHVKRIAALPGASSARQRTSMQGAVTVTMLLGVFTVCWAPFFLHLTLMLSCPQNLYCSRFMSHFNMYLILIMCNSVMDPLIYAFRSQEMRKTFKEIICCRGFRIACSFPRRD

Mean of Fluorescence Intensity (M): 722.50
Substance: NH2-Ser-Thr-Ser-Nle-Glu-His-D-Phe-Arg-Trp-Gly-Lys-Pro-Val-OH [NDP-MSH]
